Test [1] concerns the target T1, Protein O-GlcNAcase (Homo sapiens) (UniProt O60502).
T1 sequence (whole entry): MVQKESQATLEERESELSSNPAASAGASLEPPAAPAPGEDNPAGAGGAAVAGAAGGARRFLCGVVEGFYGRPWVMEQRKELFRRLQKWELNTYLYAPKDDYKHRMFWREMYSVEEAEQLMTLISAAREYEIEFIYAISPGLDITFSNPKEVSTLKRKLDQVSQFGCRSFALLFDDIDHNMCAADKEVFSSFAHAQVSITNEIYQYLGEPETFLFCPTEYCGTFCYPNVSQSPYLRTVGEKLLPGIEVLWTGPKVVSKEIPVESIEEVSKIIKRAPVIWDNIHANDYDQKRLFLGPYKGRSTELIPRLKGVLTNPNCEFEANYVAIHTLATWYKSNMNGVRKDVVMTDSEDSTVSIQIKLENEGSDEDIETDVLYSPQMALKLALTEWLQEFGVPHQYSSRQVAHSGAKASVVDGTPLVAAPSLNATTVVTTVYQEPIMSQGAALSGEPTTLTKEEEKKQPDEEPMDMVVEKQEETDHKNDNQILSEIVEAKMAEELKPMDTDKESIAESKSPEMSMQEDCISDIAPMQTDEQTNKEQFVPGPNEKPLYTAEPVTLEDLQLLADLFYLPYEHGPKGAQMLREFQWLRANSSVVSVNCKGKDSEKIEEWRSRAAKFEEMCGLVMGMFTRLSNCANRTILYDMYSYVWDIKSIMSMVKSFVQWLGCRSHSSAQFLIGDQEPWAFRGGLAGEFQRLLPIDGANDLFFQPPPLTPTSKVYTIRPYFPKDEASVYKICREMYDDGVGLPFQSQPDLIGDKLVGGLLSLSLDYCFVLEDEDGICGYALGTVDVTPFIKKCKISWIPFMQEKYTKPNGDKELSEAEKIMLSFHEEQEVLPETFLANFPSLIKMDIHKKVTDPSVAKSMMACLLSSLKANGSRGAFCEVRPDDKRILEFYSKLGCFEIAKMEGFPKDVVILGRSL
Nature of the test: Inhibition of human OGA at 100 uM.

The target in test [2] is T2, Beta-hexosaminidase subunit alpha (Homo sapiens, UniProt P06865).
T2 sequence (P06865 whole entry): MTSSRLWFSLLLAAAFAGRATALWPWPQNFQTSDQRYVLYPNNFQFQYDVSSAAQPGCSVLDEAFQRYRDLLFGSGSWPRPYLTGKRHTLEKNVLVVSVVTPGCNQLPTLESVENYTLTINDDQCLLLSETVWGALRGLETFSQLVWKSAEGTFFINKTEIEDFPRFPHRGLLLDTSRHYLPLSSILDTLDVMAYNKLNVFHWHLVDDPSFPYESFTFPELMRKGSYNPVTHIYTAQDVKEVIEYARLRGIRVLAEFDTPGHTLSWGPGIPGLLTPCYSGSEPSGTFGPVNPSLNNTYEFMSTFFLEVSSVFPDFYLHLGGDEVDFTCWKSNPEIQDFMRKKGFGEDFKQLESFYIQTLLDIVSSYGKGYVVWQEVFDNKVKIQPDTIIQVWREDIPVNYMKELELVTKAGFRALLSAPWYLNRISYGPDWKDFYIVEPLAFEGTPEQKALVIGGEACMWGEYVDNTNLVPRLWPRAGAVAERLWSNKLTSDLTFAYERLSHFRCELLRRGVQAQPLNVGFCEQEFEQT
Briefly: Inhibition of human Hex A using 4-MU-GlcNAc as substrate after 10 mins by Lineweaver Burk plot analysis.

Test [3] concerns the target T1, Protein O-GlcNAcase (Homo sapiens). Nature of the test: Inhibition of OGA in human SH-SY5Y cells assessed as increase in protein O-GlcNAcylation level after 24 hrs by Western blot analysis. It counts as cell-based.
The target of test [4] is T3, Protein O-GlcNAcase (Homo sapiens, UniProt O60502).
T3 sequence (O60502 whole entry): T1 sequence (whole entry)
Nature of the test: Competitive inhibition of human OGA using 4-MU-GlcNAc as substrate after 10 mins by Lineweaver Burk plot analysis.

The target of test [5] is T1, Protein O-GlcNAcase (Homo sapiens). Nature of the test: Inhibition of OGA in human SH-SY5Y cells assessed as increase in protein O-GlcNAcylation level at 10 uM after 24 hrs by Western blot analysis. It counts as cell-based.

Molecules are shown by their SMILES. pKi: −log10 of the molar value. The source made the active and inactive calls. The calls are words filed in the database; no cut-off is given here.

In test [1], `CC(C)(CCc1cn2c(n1)[C@H](O)[C@@H](O)[C@H](O)[C@H]2CO)C(=O)Nc1ccccc1` showed an inhibition of 2.2%. The same measure, in the same setting: the result for `OC[C@@H]1[C@@H](O)[C@H](O)[C@@H](O)c2nc(CCc3ccccc3)cn21` reads 6.8%; that for `Cc1ccc(CCc2cn3c(n2)[C@H](O)[C@@H](O)[C@H](O)[C@H]3CO)cc1`, 28.3%. Regarding `OC[C@@H]1[C@@H](O)[C@H](O)[C@@H](O)c2nc(CCc3ccc(C4CCCCC4)cc3)cn21`, the inhibition in test [1] turned out to be 56.6%. `OC[C@@H]1[C@@H](O)[C@H](O)[C@@H](O)c2nc(CCc3ccc(F)cc3)cn21` registered an inhibition in test [1] of 26.1%. In the case of `O=C(CCc1cn2c(n1)[C@H](O)[C@@H](O)[C@H](O)[C@H]2CO)Nc1ccccc1`, the inhibition in test [1] was 17.1%. In the case of `COc1ccc(CCc2cn3c(n2)[C@H](O)[C@@H](O)[C@H](O)[C@H]3CO)cc1`, the inhibition in test [1] came to 54.1%. Consider `OC[C@@H]1[C@@H](O)[C@H](O)[C@@H](O)c2nc(CCc3ccc(-c4ccccc4)cc3)cn21`, for which the pKi in test [2] was 3.79; in test [4], 5.23. In addition, the values for the inhibition entry in test [3] and in test [1] were “Dose-dependent effect” and 84.8%, respectively. Also, in test [5], the inhibition result was “Active”.

As for `OC[C@@H]1[C@@H](O)[C@H](O)[C@@H](O)c2nccn21`, in test [1], the inhibition was 6.2%. In test [1], `CC(C)(C)CCc1cn2c(n1)[C@H](O)[C@@H](O)[C@H](O)[C@H]2CO` displayed an inhibition of 0.4%. Take `CCCCCCCCc1cn2c(n1)[C@H](O)[C@@H](O)[C@H](O)[C@H]2CO`: the inhibition in test [1] came to 15.3%.

(Values after ChEMBL document CHEMBL2157966, “Elevation of cellular O-GlcNAcylation level by a potent and selective O-GlcNAcase inhibitor based on tetrahydroimidazopyridine scaffold” (Bioorg Med Chem Lett, 2012).)
